{
  "source": "ChEMBL document CHEMBL6127081",
  "about": "“Peptide inhibitors targeting Ras and Ras-associated protein-protein interactions” (Eur J Med Chem, 2024)",
  "key": {"[1]": {"biological_target": "T1, GTPase KRas (Homo sapiens, UniProt P01116)", "assay": "Inhibition of KRas (unknown origin)"}, "[2]": {"biological_target": "SOS1-KRAS (Homo sapiens, UniProt P01116, G12D)", "assay": "Inhibition of KRAS G12D mutant/SOS1 (unknown origin) interaction by TR-FRET assay", "assay_type": "protein-complex assay"}, "[3]": {"biological_target": "T2, SOS1-KRAS (Homo sapiens, UniProt P01116)", "assay": "Binding affinity to his-tagged N-terminal KRas (1 to 166 residues)/his-tagged catalytic domain SOS (564 to 1049 residues) (unknown origin) interaction extracted from Escherichia coli (BL21) assessed as dissociation constant by fluorescence polarization assay", "assay_type": "protein-complex assay"}, "[4]": {"biological_target": "T2, SOS1-KRAS", "assay": "Inhibition of his-tagged N-terminal GDP-bound KRas (1 to 166 residues)/his-tagged catalytic domain SOS (564 to 1049 residues) (unknown origin) interaction extracted from Escherichia coli (BL21) by fluorescence based spectroflurometric analysis", "assay_type": "protein-complex assay"}, "[5]": {"biological_target": "T2, SOS1-KRAS", "assay": "Binding affinity to his-tagged N-terminal GDP-bound KRas (1 to 166 residues)/his-tagged catalytic domain SOS (564 to 1049 residues) (unknown origin) interaction extracted from Escherichia coli (BL21) assessed as dissociation constant by fluorescence polarization assay", "assay_type": "protein-complex assay"}, "[6]": {"assay": "Inhibition of Biotinylated Avi-tagged KRas G12D mutant/GST tagged Raf1-RBD domain (1 to 149 residues) (unknown origin) incubated for 1 hr by TR-FRET assay", "set-up": "species or system Homo sapiens"}, "[7]": {"biological_target": "GTPase KRas (Homo sapiens, UniProt P01116, G12D)", "assay": "Inhibition of human KRas G12D mutant incubated for 0.5 hrs by absorbance based analysis"}, "[8]": {"biological_target": "GTPase KRas/RAF1 (Homo sapiens, UniProt P01116)", "assay": "Inhibition of KRAS/RAF interaction (unknown origin) by HTRF assay", "assay_type": "protein assay"}, "[9]": {"biological_target": "T1, GTPase KRas", "assay": "Binding affinity to KRas (unknown origin) assessed as dissociation constant"}},
  "note": "Where a SMILES comes first, the peptide text is derived from it. [ ]: non-standard residue; d: D form. hPhe(3-Cl-4-CF3) = N[C@@H](CCc1ccc(C(F)(F)F)c(Cl)c1)C(=O)O; hPhe(4-CF3) = N[C@@H](CCc1ccc(C(F)(F)F)cc1)C(=O)O; Phe(4-F) = N[C@@H](Cc1ccc(F)cc1)C(=O)O; 2Nal = N[C@@H](Cc1ccc2ccccc2c1)C(=O)O; NMeCha = CN[C@@H](CC1CCCCC1)C(=O)O; NMeL = CN[C@@H](CC(C)C)C(=O)O; NMeV = CN[C@H](C(=O)O)C(C)C; Nle = CCCC[C@H](N)C(=O)O; Ac5c = NC1(C(=O)O)CCCC1; β3hA = C[C@H](N)CC(=O)O; Sar = CNCC(=O)O",
  "data": [
    {"smiles": "CC(C)C[C@H](NC(=O)C1CCCOCc2cnnn2CCC(=O)NCC(=O)N2CCC[C@H]2C(=O)N[C@@H](Cc2cccc3ccccc23)C(=O)N1)C(N)=O", "note": "(stereo partly drawn)", "values": [
      {"measurement": "IC50", "setting": "[1]", "value": 7.1, "unit": "µM"}
    ]},
    {"smiles": "CC[C@H](C)[C@@H]1NC(=O)[C@H](CC(C)C)N(C)C(=O)C[C@H](C)NC(=O)[C@H](C(C)C)N(C)C(=O)C2(CCCC2)NC(=O)[C@@H]2CCCN2C(=O)[C@H](CCc2ccc(C(F)(F)F)c(Cl)c2)NC(=O)CN(C)C(=O)[C@H](CC2CCCCC2)N(C)C(=O)CN(C)C1=O", "note": "(cyclo([Ac5c][NMeV][β3hA][NMeL]I[Sar][NMeCha][Sar][hPhe(3-Cl-4-CF3)]P))", "values": [
      {"measurement": "IC50", "setting": "[2]", "value": 0.011, "unit": "µM"}
    ]},
    {"smiles": "CC[C@H](C)[C@H](NC(=O)CN1C/C=C\\CCC(=O)N[C@@H](Cc2ccccc2)C(=O)N[C@@H](CCC(=O)O)C1=O)C(=O)N[C@@H](Cc1ccc(O)cc1)C(=O)N[C@@H](CCCNC(=N)N)C(=O)N[C@@H](CC(C)C)C(=O)N[C@@H](CCC(=O)O)C(=O)N[C@@H](CC(C)C)C(=O)N[C@@H](CC(C)C)C(=O)N[C@@H](CCCCN)C(=O)N[C@@H](C)C(=O)N[C@@H](CCC(=O)O)C(=O)N[C@@H](CCC(=O)O)C(=O)N[C@@H](C)C(=O)N[C@@H](CC(N)=O)C(N)=O", "values": [
      {"measurement": "Kd", "setting": "[3]", "value": 28, "unit": "µM"},
      {"measurement": "IC50", "setting": "[4]", "value": 6.9, "unit": "µM"},
      {"measurement": "IC50", "setting": "[2]", "value": 0.64, "unit": "µM"},
      {"measurement": "Kd", "setting": "[5]", "value": 158, "unit": "µM"}
    ]},
    {"smiles": "CC[C@H](C)[C@@H]1NC(=O)[C@H](Cc2ccccc2)NC(=O)[C@H](CCCCN)NC(=O)[C@H](CCC(=O)O)NC(=O)[C@H]([C@@H](C)O)NC(=O)[C@H](C(C)C)NC(=O)[C@H]([C@@H](C)CC)NC(=O)[C@H]([C@@H](C)CC)NC(=O)[C@H](Cc2ccc(O)cc2)NC(=O)CSC[C@@H](C(=O)NCC(N)=O)NC(=O)[C@H](Cc2c[nH]cn2)NC(=O)[C@H](Cc2c[nH]cn2)NC(=O)[C@H](C(C)C)NC(=O)[C@H](Cc2c[nH]c3ccccc23)NC1=O", "values": [
      {"measurement": "IC50", "setting": "[6]", "value": 3, "unit": "µM"}
    ]},
    {"smiles": "CC[C@H](C)[C@@H]1NC(=O)[C@@H]2CCCN2C(=O)CNC(=O)CCn2nncc2COCCCC(C(=O)N[C@@H](CC(C)C)C(N)=O)NC1=O", "note": "(stereo partly drawn)", "values": [
      {"measurement": "IC50", "setting": "[1]", "value": 100, "unit": "µM"}
    ]},
    {"smiles": "CCCCCCC[C@@H]1NC(=O)[C@H](CO)NC(=O)[C@H](Cc2ccc(F)cc2)NC(=O)[C@H](CC(=O)O)NC(=O)[C@@H]2CCCN2C(=O)[C@H](Cc2c[nH]c3ccccc23)NC(=O)[C@H]2CSCCCSC[C@H](NC1=O)C(=O)N[C@@H](CCCC)C(=O)NCCC(=O)N2", "values": [
      {"measurement": "EC50", "setting": "[7]", "value": 0.022, "unit": "µM"}
    ]},
    {"smiles": "CC[C@H](C)[C@@H]1NC(=O)[C@H](CC(C)C)N(C)C(=O)C[C@H](C)NC(=O)[C@H](CC(C)C)N(C)C(=O)C2(CCCC2)NC(=O)[C@@H]2CCCN2C(=O)[C@H](CCc2ccc(C(F)(F)F)cc2)NC(=O)CN(C)C(=O)[C@H](CC2CCCCC2)N(C)C(=O)CN(C)C(=O)CN(C)C1=O", "note": "(cyclo([Ac5c][NMeL][β3hA][NMeL]I[Sar][Sar][NMeCha][Sar][hPhe(4-CF3)]P))", "values": [
      {"measurement": "IC50", "setting": "[2]", "value": 0.11, "unit": "µM"}
    ]},
    {"smiles": "CCCC[C@@H]1NC(=O)[C@H](Cc2ccc(F)cc2)NC(=O)[C@H](CCCNC(=N)N)NC(=O)[C@H](Cc2ccc3ccccc3c2)NC(=O)[C@H](CCCNC(=N)N)NC(=O)[C@H](CCCNC(=N)N)NC(=O)[C@H](CCCNC(=N)N)NC(=O)[C@H](C)NC(=O)[C@H]([C@@H](C)O)NC(=O)[C@H](Cc2c[nH]c3ccccc23)NC(=O)[C@H](CCC(N)=O)NC1=O", "note": "(cyclo([2Nal]R[Phe(4-F)][Nle]QWTARRR))", "values": [
      {"measurement": "IC50", "setting": "[8]", "value": 0.12, "unit": "µM"}
    ]},
    {"smiles": "CCCC[C@@H]1NC(=O)[C@H](Cc2ccc(F)cc2)NC(=O)[C@H](CCCNC(=N)N)NC(=O)[C@H](Cc2ccc3ccccc3c2)NC(=O)[C@H](CCCNC(=N)N)NC(=O)[C@H](CCCNC(=N)N)NC(=O)[C@H](CCC(N)=O)NC(=O)[C@H](C)NC(=O)[C@H]([C@@H](C)O)NC(=O)[C@H](Cc2c[nH]c3ccccc23)NC(=O)[C@H](CO)NC1=O", "note": "(cyclo([2Nal]R[Phe(4-F)][Nle]SWTAQRR))", "values": [
      {"measurement": "IC50", "setting": "[8]", "value": 0.65, "unit": "µM"}
    ]},
    {"smiles": "Cc1[nH]c2cc(Cl)cc(Cl)c2c1CCN", "values": [
      {"measurement": "Kd", "setting": "[9]", "value": "~1100", "unit": "µM"}
    ]}
  ]
}
